Measured values as given in patent US20210052546A1, “METHODS AND PHARMACEUTICAL COMPOSITIONS FOR THE TREATMENT OF FGFR3-RELATED CHONDRODYSPLASIAS” (INSERM (INSTITUT NATIONAL DE LA SANTÉ ET DE LA RECHERCHE …, priority 2018, published 2021).

What was measured:
[1] = test system: Fgfr3^Y367C/+ chondrocytes; assay: Primary cilium length in antenatal E16.5 Fgfr3Y367C/+ chondrocytes (immunocytochemistry); type: cell-based, mice
Experimental: Cultured chondrocytes issued from Fgfr3^Y367C/+ were fixed at room temperature for 10 min in methanol (chilled at −20° C.), and then washed with PBS. Samples were permeabilized for 10 min with PBS containing 0.1% Triton-X100 (Sigma-Aldrich), then washed three times for 5 min. Samples were incubated with PBS containing 10% goat serum (Biowest) for 60 min at room temperature. Primary antibodies were incubated at 4° C. overnight. The following primary antibodies were used: mouse IgG1 anti-γ-tubulin (Sigma-Aldrich #T6557, 1:1000) and rabbit anti-Ar113b (Proteintech #177111-AP, 1:500). Cells were washed with PBS, and then incubated with goat anti-mouse IgG1 coupled with AlexaFluor 488 (Life Technologies, 1:1000) and goat anti-rabbit coupled with AlexaFluor 647 (Life Technologies, 1:1000) secondary antibodies for 2h at room temperature in the dark. Samples were extensively washed and mounted with a solution of DAPI-Fluoromount G (SouthernBiotech) containing DAPI (4′,6′-diamidino-2-phenylindole) for nuclear staining. Image acquisition were captured using a Spinning disk confocal microscope. […] In order to compare measured data, all confocal experiments showing PC length was acquired in same conditions using slice thickness of 0.20 μm and a pixel size of 60 nm. […] We next measured in 2D the PC lengths by IMARIS software (Bitplane).

growth plate cartilage = assay: Histology and immunohistochemistry of growth plate cartilage of cultured femur explants; set-up: species or system mice
Experimental: In order to appreciate the impact of the treatment on the growth plate cartilage, we performed histological and immunohistological studies. We selected specific markers of the cartilage, SOX9 and Collagen type X, we tested the expression of the protein FGFR3 and we also evaluated the expression of the phosphorylated Erk1/2 proteins of the […] signalling and activated by FGFR3. Limb explants were fixed after culture in 4% paraformaldehyde at 4° C. and embedded in paraffin. Serial 5 μm sections were stained with Hematoxylin-Eosin using standard protocols for histological analysis or were subjected to immunohistochemical staining. For immunohistochemistry, sections were stained with antibodies specific to FGFR3 (1:100 dilution; Sigma), anti-Collagen type X (1:50 dilution; Quartett) anti-SOX9 (1:1000 dilution; Abcam), anti-phosphorylated Erk1/2 (1:100 dilution; Cell signaling) using the Dako Envision system kit. Images were captured with an Olympus PD70-IX2-UCB microscope.

Fgfr3^+/+ femurs = assay: Ex vivo femur cultures isolated from Fgfr3+/+ mice
Experimental: (§1) Several sets of ex vivo experiments were performed as previously described (Jonquoy et al., Hum Mol Genet, 21: 841-851, 2012). Femur embryos at day E16.5 from Fgfr3^+/+ (n=23) and Fgfr3^Y367C/+ (n=16) mice were used and incubated for 6 days in DMEM medium with antibiotics and 0.2% BSA (Sigma) supplemented with cocoa F5 or (−)-epicatechin (Sigma-0394-05-90) or DMSO (as control) at a concentration of 10 and 30 μg/ml. To establish the effect of the inhibitors, the left femur was cultured in supplemented medium and compared with the right one cultured in control medium. The bone length was measured at the beginning (before treatment) and at the end of time course. The genotype of Fgfr3^+/+ and Fgfr3^Y367C/+ mice were determined by PCR of tail DNA as previously described (Pannier et al., Biochim Biophys Acta, 1792: 140-147, 2009). All experimental procedures and protocols were approved by the Animal Care and Use Committee.

Fgfr3^Y367C/+ femurs = assay: Ex vivo femur cultures isolated from Fgfr3Y367C/+ mice
Experimental: as §1

[2] = proximal and distal femurs, immunohistochemistry

Compound: Oc1cc(O)c2c(c1)O[C@H](c1ccc(O)c(O)c1)[C@H](O)C2 [(−)-epicatechin, (2R,3R)-2-(3,4-dihydroxyphenyl)-3,4-dihydro-2H-chromene-3,5,7-triol]
- effect on primary cilium ([1]; Fgfr3Y367C/+ chondrocytes): elongation
- primary cilium average length (A) ([1]; Fgfr3Y367C/+ chondrocytes treated with (−)-epicatechin, n=113, N=3, mean+S.E.M., untreated 2.10+0.06, in µm): 2.45+0.09
- reserve, proliferative and pre-hypertrophic zones of the growth plate cartilage (growth plate cartilage; H&E staining): increased
- whole growth plate cartilage (growth plate cartilage; H&E staining): improved
- epiphysis size (growth plate cartilage; proximal and distal femur, histology): increase size
- FGFR3 expression (growth plate cartilage; [2]): strongly decreased
- SOX9 expression (growth plate cartilage; [2]): strongly decreased
- collagen type X expression (growth plate cartilage; [2]): not modified
- phosphorylated Erk1/2 expression (growth plate cartilage; [2]): slightly decreased
- size of the femurs, Fgfr3+/+ (Fgfr3^+/+ femurs; 1 μg/ml (FIG. 13)): did not improve
- growth of the Fgfr3+/+ femurs (Fgfr3^+/+ femurs; 10 μg/ml, 6 days culture): did not impair
- size of the femurs, Fgfr3Y367C/+ (Fgfr3^Y367C/+ femurs; 1 μg/ml (FIG. 13)): did not improve
- percentage of femur growth in Fgfr3Y367C/+ mice versus Fgfr3+/+ mice (Fgfr3^Y367C/+ femurs; 10 μg/ml, 6 days culture): more important
- increase of length of the Fgfr3Y367C/+ femurs comparing to Fgfr3+/+ femurs (Fgfr3^Y367C/+ femurs; 10 μg/ml, E16.5 femurs, 6 days culture): +10%
